Laboratory results taken from ChEMBL document CHEMBL1201862, “PubChem BioAssay data set” (2004).
Activity calls are given as the source filed them.

Columns and labels:
H9c2 = experiment: cells; assay type: functional, cell-based; details: Rattus norvegicus, H9c2, Myocardium;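 also: confirmatory concentration-response retest of ultra-high-throughput screening hits for modulation of myocardial damage; cell death induced by hydrogen peroxide oxidative stress; compound pretreatment for 60 min then peroxide exposure for 2 h; potency is for protecting the cells against peroxide damage rather than for killing them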
[1] = inhibitors of PGC1a acetylation in cells, dose response, cell-based, cherry-picked samples (AID 720514); assay type: functional;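 also: potency may reflect raised or lowered acetylation signal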
Cytochrome P450 3A4 [2] = biological target: T1, Cytochrome P450 3A4 (Homo sapiens, UniProt P08684); details: Potency
[3] = biological target: 26S proteasome non-ATPase regulatory subunit 14 (Homo sapiens, UniProt O00487); experiment: inhibition of proteasome subunit RPN11 – biochemical, fluorescence polarization, uHTS hits, confirmation (AID 602368); assay type: functional
[4] = biological target: 72 kDa type IV collagenase (Homo sapiens, UniProt P08253); experiment: Dose Response validation of uHTS RPN11 inhibitor hits using a MMP-2 Fluorescence assay.; assay type: functional
Prothrombin [5] = biological target: Prothrombin (Bos taurus, UniProt P00735); experiment: thrombin inhibition, dose response, biochemical, fluorescence polarization, uHTS hits (AID 602369); assay type: functional
Prothrombin [6] = biological target: Prothrombin (Homo sapiens, UniProt P00734); experiment: Thrombin 1536 HTS Dose Response Confirmation. [Related pubchem assays: 1046 (Thrombin 1536 HTS; hits were confirmed in this assay)]; assay type: functional
Nonstructural protein 1 = Nonstructural protein 1 (Influenza A virus, UniProt Q194T2); assay type: functional, Influenza A virus (A/California/07/2009(H1N1))
Cytochrome P450 3A4 [7] = biological target: T1, Cytochrome P450 3A4
Cytochrome P450 1A2 = biological target: T2, Cytochrome P450 1A2 (Homo sapiens, UniProt P05177);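 also: PubChem cytochrome P450 panel assay, CYP1A2 panel member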
T2 sequence (P05177 whole entry): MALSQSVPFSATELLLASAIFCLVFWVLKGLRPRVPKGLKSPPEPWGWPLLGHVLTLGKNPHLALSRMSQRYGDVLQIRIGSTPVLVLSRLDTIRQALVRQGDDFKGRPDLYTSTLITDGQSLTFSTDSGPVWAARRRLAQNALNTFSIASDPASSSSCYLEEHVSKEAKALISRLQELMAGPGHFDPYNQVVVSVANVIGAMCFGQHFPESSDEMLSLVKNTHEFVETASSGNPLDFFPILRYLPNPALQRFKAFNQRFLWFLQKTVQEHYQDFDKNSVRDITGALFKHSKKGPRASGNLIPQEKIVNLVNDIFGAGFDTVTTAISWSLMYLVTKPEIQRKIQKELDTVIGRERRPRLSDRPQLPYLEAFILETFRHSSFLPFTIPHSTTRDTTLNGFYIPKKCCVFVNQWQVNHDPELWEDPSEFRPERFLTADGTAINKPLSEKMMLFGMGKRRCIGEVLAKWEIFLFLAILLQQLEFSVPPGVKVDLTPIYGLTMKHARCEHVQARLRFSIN

[8] = biological target: Eukaryotic translation initiation factor 4E (Mus musculus, UniProt P63073); experiment: eIF4E–eIF4G protein interaction inhibitors, dose response, biochemical, TR-FRET (AID 855); assay type: functional;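 also: potency for disrupting eIF4E binding to eIF4GI seen as loss of FRET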
Cytochrome P450 2C9 = Cytochrome P450 2C9 (Homo sapiens, UniProt P11712)
[9] = growth suppression of beta-catenin-knockout colon cells, dose response, cell-based, HCT116, human colon tumor (AID 1045); assay type: functional;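 also: HCT116 colon tumor cells with beta catenin knocked out; cells exposed to compound for 60 hours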
[10] = growth suppression of PTEN-null colon cells, dose response, cell-based, HCT116 PTEN knockout (AID 1047); assay type: functional;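 also: HCT116 colon tumor cells with PTEN knocked out; cells exposed to compound for 60 hours before readout; potency for loss of cell viability measured by luminescence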
Genome polyprotein = Genome polyprotein (dengue virus type 2, UniProt P29990); experiment: Dengue-2 NS5 methyltransferase inhibitors, primary screen, biochemical, confirmation dose response (AID 588689); assay type: functional
[11] = biological target: T3, Voltage-gated N-type calcium channel alpha-1B subunit/Amyloid beta A4 precursor protein-binding family A member 1 (Homo sapiens, UniProt Q00975+Q02410); assay type: protein assay
[12] = biological target: T4, Rac GTPase-activating protein 1 (Homo sapiens, UniProt Q9H0H5); experiment: MgcRacGAP GTPase-activating activity inhibitors, confirmation, biochemical, ADP Hunter fluorescence, primary and confirmatory (AID 624330); assay type: functional
T4 sequence (Q9H0H5 whole entry): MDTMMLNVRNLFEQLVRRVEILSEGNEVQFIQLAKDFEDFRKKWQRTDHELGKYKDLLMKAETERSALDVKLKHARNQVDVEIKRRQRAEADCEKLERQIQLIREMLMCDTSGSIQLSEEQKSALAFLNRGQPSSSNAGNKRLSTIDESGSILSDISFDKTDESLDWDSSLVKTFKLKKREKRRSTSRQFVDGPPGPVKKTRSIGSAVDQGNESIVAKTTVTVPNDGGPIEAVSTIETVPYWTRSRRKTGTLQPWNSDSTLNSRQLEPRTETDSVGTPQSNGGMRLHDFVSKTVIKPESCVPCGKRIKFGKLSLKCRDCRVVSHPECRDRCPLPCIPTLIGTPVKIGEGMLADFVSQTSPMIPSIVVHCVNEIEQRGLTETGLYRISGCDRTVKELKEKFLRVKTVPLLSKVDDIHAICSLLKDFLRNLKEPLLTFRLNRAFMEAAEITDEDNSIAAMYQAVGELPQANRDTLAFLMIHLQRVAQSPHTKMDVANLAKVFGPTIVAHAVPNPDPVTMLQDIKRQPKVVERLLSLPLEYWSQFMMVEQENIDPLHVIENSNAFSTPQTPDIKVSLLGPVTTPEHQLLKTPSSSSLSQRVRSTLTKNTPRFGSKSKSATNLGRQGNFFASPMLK

[13] = biological target: T3, Voltage-gated N-type calcium channel alpha-1B subunit/Amyloid beta A4 precursor protein-binding family A member 1; assay type: protein assay; remark: listed apart in the source
[14] = biological target: DNA dC->dU-editing enzyme APOBEC-3G (Homo sapiens, UniProt Q9HC16); experiment: Dose Response confirmation of small molecule APOBEC3G DNA Deaminase Inhibitors via a fluorescence-based single-stranded DNA deaminase assay. [Related pubchem assays (depositor defined):AID493012, AID493028]; assay type: functional
Large T antigen = Large T antigen (Simian virus 40, UniProt P03070); assay type: functional, Betapolyomavirus macacae;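 also: Confirmatory-stage PubChem screen for compounds that inhibit SV40 T antigen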
[15] = biological target: T5, Heat shock factor protein 1 (Mus musculus, UniProt P38532); experiment: inhibition of MG132-induced HSE-luciferase signal, confirmation, cell-based, NIH3T3, luminescence, dose retest (AID 2382); assay type: functional;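 also: NIH3T3 fibroblasts with HSF1-driven luciferase reporter stressed by proteasome inhibitor MG132; luminescence from HSF1-driven luciferase expression after 8 hours of MG132 stress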
T5 sequence (P38532 whole entry): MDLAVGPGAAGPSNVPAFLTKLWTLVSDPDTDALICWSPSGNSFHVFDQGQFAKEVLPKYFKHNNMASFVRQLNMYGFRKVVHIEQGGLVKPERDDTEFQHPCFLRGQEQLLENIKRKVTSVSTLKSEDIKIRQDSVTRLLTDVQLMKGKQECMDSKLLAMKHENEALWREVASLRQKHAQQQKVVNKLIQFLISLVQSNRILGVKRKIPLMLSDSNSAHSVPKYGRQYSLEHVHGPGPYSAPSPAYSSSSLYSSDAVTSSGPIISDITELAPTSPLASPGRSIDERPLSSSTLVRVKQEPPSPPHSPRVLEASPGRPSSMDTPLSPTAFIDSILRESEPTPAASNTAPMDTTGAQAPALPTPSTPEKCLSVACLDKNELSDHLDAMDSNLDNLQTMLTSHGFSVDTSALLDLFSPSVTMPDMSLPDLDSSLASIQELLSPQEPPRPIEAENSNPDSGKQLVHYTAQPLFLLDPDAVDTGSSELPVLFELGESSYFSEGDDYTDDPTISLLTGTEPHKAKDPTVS

[16] = biological target: Alkaline phosphatase, placental type (Homo sapiens, UniProt P05187); experiment: PLAP enzyme inhibitors, confirmation, biochemical, luminescence (AID 1512); assay type: functional
[17] = biological target: T6, Calpain-2 catalytic subunit (Sus scrofa, UniProt P43367); experiment: pig calpain II inhibitor potency, dose response, biochemical, fluorogenic peptide substrate (AID 1420); assay type: functional
T6 sequence (P43367 whole entry): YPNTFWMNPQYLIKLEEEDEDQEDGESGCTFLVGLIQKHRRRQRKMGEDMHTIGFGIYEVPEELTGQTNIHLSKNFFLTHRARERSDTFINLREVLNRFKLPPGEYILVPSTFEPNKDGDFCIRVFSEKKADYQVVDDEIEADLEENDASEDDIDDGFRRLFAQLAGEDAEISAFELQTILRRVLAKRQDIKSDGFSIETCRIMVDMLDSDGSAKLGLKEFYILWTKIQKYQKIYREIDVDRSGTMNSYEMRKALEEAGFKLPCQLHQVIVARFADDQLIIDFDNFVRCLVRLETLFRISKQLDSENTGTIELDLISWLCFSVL

[18] = biological target: Nucleotide-binding oligomerization domain-containing protein 2 (Homo sapiens, UniProt Q9HC29); experiment: NOD2 signaling inhibitors, cell-based, luminescence, uHTS, HEK293 (AID 1566); assay type: functional
HEK293 [19] = experiment: NOD2 signaling inhibitors in MDP-stimulated cells, cell-based, uHTS, luminescence (AID 2001); assay type: functional; details: Homo sapiens
HEK293 [20] = experiment: cells; assay type: functional, cell-based; details: Homo sapiens
HEK293 [21] = experiment: NOD1 signaling inhibitors, primary screen, cell-based, luminescence, uHTS (AID 1578); assay type: functional; details: Homo sapiens
HEK293 [22] = experiment: cells; assay type: functional, cell-based; details: Homo sapiens; remark: listed apart in the source
HEK293 [23] = experiment: cells; assay type: functional, cell-based; details: Homo sapiens; remark: listed apart in the source
[24] = biological target: Glyceraldehyde-3-phosphate dehydrogenase (Homo sapiens, UniProt P04406)

T3 sequence (Q00975 whole entry): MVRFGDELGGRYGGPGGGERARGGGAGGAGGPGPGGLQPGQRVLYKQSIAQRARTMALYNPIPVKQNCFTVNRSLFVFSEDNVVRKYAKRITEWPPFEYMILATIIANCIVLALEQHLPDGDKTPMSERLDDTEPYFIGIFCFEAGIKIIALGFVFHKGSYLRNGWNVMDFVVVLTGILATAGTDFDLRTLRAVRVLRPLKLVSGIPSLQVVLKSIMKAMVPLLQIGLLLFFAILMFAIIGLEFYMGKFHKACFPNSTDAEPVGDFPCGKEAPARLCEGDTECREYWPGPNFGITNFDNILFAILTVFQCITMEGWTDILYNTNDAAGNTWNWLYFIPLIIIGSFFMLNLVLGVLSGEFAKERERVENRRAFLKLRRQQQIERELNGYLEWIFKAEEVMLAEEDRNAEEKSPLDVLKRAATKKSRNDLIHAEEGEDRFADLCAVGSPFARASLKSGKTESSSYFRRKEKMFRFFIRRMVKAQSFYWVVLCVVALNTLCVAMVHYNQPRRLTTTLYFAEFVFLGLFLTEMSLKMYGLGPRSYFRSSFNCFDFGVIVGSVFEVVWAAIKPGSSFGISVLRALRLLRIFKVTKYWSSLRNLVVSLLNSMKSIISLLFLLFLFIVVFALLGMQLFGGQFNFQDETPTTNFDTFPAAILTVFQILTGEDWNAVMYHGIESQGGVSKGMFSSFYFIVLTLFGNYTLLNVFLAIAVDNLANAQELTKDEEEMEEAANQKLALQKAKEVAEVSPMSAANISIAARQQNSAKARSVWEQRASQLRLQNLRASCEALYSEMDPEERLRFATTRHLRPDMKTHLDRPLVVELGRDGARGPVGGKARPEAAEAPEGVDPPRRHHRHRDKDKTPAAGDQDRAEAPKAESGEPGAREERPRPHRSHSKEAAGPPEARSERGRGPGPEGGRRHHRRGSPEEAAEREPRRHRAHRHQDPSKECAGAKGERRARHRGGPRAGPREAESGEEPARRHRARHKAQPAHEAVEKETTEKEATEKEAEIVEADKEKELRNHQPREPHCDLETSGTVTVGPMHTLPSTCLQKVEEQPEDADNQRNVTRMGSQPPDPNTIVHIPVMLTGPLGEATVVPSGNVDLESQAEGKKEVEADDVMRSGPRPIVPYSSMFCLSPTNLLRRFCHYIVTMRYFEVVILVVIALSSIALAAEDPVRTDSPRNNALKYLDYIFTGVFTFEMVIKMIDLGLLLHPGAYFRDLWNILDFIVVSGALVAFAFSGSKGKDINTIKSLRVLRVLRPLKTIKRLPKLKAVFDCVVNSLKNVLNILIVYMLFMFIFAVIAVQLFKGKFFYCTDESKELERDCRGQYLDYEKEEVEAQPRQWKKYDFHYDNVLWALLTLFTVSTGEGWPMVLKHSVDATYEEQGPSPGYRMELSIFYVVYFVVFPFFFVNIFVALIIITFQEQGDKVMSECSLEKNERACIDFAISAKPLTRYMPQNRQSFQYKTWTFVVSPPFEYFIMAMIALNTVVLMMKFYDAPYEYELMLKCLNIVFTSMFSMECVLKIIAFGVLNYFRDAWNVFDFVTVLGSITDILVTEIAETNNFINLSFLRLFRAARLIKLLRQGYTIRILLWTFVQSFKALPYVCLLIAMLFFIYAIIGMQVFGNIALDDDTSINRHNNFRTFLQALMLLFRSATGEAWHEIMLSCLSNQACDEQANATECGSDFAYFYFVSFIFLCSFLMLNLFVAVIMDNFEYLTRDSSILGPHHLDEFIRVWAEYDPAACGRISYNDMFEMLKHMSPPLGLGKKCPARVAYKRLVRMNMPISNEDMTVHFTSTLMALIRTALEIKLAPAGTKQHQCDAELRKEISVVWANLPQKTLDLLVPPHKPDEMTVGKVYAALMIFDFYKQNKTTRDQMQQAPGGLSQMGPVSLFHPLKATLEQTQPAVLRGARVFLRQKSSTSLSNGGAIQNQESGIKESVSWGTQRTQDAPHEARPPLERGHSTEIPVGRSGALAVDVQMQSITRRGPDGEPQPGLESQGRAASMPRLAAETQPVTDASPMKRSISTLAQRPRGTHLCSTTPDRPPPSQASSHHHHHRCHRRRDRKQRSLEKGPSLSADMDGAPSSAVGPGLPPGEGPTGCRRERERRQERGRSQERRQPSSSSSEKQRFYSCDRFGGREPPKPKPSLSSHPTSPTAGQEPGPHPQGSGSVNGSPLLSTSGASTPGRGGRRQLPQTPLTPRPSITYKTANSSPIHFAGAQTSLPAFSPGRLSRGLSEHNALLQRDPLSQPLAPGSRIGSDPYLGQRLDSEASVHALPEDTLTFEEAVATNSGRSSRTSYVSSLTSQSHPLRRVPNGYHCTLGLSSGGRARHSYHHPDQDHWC
T3 sequence (Q02410 whole entry): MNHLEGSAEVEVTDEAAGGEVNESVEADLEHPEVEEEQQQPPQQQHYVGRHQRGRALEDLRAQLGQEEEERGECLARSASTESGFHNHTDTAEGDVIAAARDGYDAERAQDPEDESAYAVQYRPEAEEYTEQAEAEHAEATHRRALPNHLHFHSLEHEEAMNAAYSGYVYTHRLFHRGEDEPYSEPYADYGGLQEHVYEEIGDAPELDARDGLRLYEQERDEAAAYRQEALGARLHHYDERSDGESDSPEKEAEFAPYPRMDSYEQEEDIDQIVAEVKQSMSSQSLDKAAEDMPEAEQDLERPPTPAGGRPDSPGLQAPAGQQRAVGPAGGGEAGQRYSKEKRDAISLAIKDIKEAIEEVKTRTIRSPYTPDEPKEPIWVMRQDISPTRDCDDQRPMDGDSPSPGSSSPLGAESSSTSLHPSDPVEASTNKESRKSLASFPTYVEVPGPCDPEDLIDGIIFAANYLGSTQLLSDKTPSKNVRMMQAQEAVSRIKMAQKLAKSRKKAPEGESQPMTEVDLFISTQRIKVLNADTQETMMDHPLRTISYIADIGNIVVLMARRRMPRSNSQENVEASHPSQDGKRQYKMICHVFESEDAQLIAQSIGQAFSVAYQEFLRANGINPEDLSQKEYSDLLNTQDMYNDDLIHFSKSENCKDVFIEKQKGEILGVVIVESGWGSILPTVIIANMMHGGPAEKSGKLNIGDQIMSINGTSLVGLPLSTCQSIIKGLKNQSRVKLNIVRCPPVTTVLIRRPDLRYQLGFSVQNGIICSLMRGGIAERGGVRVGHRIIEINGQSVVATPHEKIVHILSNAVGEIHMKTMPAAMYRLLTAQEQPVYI
T1 sequence (P08684 whole entry): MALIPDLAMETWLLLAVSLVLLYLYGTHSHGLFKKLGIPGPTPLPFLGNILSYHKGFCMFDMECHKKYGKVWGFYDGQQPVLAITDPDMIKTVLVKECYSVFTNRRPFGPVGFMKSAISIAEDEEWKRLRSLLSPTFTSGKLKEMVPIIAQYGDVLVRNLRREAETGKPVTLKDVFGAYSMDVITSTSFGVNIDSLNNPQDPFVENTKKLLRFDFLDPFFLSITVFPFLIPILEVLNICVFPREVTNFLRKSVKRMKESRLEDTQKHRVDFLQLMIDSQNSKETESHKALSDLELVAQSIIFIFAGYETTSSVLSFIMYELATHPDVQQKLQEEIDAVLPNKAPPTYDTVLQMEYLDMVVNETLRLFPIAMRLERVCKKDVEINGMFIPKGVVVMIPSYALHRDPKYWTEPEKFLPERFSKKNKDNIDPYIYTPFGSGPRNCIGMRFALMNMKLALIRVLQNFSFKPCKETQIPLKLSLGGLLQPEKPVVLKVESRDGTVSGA
Chain of 72 kDa type IV collagenase (P08253 whole entry): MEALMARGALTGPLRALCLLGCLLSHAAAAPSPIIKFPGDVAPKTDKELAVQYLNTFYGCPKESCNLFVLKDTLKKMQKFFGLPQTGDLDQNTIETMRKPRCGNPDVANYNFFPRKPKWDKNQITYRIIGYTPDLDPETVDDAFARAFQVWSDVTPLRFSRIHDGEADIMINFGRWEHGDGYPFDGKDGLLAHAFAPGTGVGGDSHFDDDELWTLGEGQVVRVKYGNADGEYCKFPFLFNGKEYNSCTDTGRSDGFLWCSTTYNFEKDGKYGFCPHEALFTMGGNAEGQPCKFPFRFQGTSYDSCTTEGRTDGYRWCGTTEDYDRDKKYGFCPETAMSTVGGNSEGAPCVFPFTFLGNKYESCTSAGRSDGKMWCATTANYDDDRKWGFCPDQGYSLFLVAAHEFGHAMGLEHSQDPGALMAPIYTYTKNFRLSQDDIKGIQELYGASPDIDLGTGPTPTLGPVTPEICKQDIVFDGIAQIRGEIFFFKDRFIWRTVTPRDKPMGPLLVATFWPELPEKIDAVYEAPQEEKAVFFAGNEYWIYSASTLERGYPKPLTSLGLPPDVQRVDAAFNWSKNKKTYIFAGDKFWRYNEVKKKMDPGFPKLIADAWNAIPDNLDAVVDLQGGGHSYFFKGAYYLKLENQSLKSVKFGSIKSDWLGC
Chain of 26S proteasome non-ATPase regulatory subunit 14 (O00487 whole entry): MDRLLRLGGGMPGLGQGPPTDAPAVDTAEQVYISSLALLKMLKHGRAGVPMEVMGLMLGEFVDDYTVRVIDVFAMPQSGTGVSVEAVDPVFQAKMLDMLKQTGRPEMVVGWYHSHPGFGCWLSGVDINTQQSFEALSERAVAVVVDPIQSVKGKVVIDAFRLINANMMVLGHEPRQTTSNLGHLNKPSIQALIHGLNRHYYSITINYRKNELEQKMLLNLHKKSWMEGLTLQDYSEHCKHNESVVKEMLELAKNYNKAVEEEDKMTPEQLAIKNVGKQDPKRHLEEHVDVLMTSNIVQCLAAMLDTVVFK
Chain of Eukaryotic translation initiation factor 4E (P63073 whole entry): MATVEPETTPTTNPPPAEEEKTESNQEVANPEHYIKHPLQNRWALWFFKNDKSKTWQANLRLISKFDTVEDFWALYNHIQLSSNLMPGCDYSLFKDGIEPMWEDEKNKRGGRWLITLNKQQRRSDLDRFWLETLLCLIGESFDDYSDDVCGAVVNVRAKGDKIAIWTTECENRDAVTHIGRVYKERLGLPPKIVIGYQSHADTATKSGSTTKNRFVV

O=[N+]([O-])c1cc(-c2nnc(O)c3ccccc23)ccc1NCCCO
IC50 (H9c2): 16.3 µM (active)
AC50 [1]: 25 µM (active)

CC(CCC(=O)O)(c1ccc(O)cc1)c1ccc(O)cc1
AC50 (Cytochrome P450 3A4 [2]): 39.8 µM (inconclusive)

CCOC(=O)C1CCN(C(=O)CCc2nc3sc4c(c3c(=O)[nH]2)CCCC4)CC1
IC50 [3]: 31.6 µM (active)
IC50 [4]: > 100 µM (inactive)
IC50 (Prothrombin [5]): 36.5 µM (active)

O=c1c(O)c(-c2ccc(O)c(O)c2)oc2c(OC3OC(CO)C(O)C(O)C3O)c(O)cc(O)c12 (centres undefined)
AC50 (Cytochrome P450 3A4 [2]): 39.8 µM (inconclusive)

Cc1nc(NCCc2ccccc2F)c(C#N)c(C)c1[N+](=O)[O-]
IC50 (Prothrombin [6]): > 50 µM (not active)

COC1=C(Nc2ccc(C)cc2)C(=O)c2ccccc2C1=O
IC50 (Nonstructural protein 1): 10 µM (active)

Cc1ccc(SCc2cc(=O)[nH]c(NC(N)=Nc3ccc(C)c(C)c3)n2)cc1
AC50 (Cytochrome P450 3A4 [7]): 7.08 µM (inconclusive)
AC50 (Cytochrome P450 1A2): 5.62 µM (inconclusive)
IC50 [8]: > 64 µM (inactive)
AC50 (Cytochrome P450 2C9): 2.24 µM (inconclusive)

O=C(Nc1ccc(F)cc1)Nc1nnc(-c2ccncc2)s1
EC50 [9]: 25.9 µM (active)
EC50 [10]: 22.4 µM (active)
IC50 [3]: 23.2 µM (active)
IC50 [4]: > 100 µM (inactive)
IC50 (Prothrombin [5]): 65.5 µM (active)

N#Cc1ccccc1NC(=O)COC(=O)COc1ccccc1[N+](=O)[O-]
IC50 (Prothrombin [6]): 9.18 µM (active)

O=C(O)CCCNC(=O)/C=C/c1ccco1
IC50 (Genome polyprotein): > 100 µM (active)
IC50 [11]: 13.6 µM (active)
IC50 [12]: 151 µM (active)
IC50 [13]: 17.1 µM (active)

COc1ccc(Oc2c(Cl)cnn(-c3ccccc3)c2=O)cc1
AC50 [1]: 19.7 µM (active)
AC50 (Cytochrome P450 2C9): 11.2 µM (inconclusive)

CCOc1cc(C(=S)N2CCOCC2)ccc1O
IC50 [14]: 42.8 µM (active)
IC50 [8]: > 64 µM (inactive)

COc1cc(/C=C2\N=C3CCCCCN3C2=O)ccc1O
IC50 (Large T antigen): 9.11 µM (active)
IC50 [3]: 14.8 µM (active)
IC50 [4]: > 100 µM (inactive)
IC50 (Prothrombin [5]): 29.7 µM (active)

CCc1c(C)sc(NC(=O)C2CCCCC2C(=O)O)c1C(N)=O (centres undefined)
IC50 [8]: > 64 µM (inactive)

CC(Oc1ccccc1)C(=O)NC1C(=O)N2C(C(=O)O)C(C)(C)S[C@@H]12 (some centres undefined)
AC50 (Cytochrome P450 3A4 [2]): 0.251 µM (inconclusive)

COc1ccccc1NC(=O)CSc1nn2c(=O)c(C)nnc2s1
IC50 (Nonstructural protein 1): 16.1 µM (active)

NS(=O)(=O)c1ccc(CCNC(=O)/C=C/c2ccc([N+](=O)[O-])cc2)cc1
IC50 [11]: > 50 µM (inactive)
IC50 [13]: 9.65 µM (active)

c1ccc(-n2nnc3cnccc32)cc1
IC50 [8]: > 64 µM (inactive)

O=C(c1cccs1)n1nc(-c2ccco2)nc1SCc1ccccc1
IC50 (Prothrombin [6]): 1.48 µM (active)
EC50 [15]: > 195 µM (not active)

O=C(NC1(C(F)(F)F)Oc2ccc(Cl)cc2O1)N1CCC2(CC1)OCCO2 (centres undefined)
IC50 [16]: 9.93 µM (active)

CC(=O)C1=C(O)C(=CC=Cc2ccccc2)OC1=O
IC50 [3]: 35.2 µM (active)
IC50 [4]: > 100 µM (inactive)
IC50 (Prothrombin [5]): 50.4 µM (active)

O=C(C1CC1)N1C[C@@H]2N[C@H](C1)[C@@H]2c1ccc(/C=C/c2ccccc2)cc1
AC50 [1]: 32.3 µM (active)

CCN1C(C)=C(C(=O)OC)C(c2ccccc2)N2C(=O)[C@@]3(C(=O)OC)O[C@@]12C1C(=O)CCCC13 (some centres undefined)
AC50 (Cytochrome P450 3A4 [2]): 3.98 µM (inconclusive)

COc1cc([N+](=O)[O-])ccc1-c1ccc(/C=N/NC(=O)c2ccccc2O)o1
IC50 [17]: 8.3 µM (not active)
EC50 [18]: > 20 µM (inactive)
IC50 (HEK293 [19]): 14.1 µM (inactive)
IC50 (HEK293 [20]): 19.9 µM (active)
EC50 (HEK293 [21]): > 20 µM (inactive)
IC50 (HEK293 [22]): > 20 µM (inactive)
IC50 (HEK293 [23]): > 20 µM (inactive)

O=C(NCCO)c1cc(-c2cc(F)c(Cl)cc2Cl)n[nH]1
IC50 [24]: > 100 µM (not active)
IC50 [16]: > 25 µM (inactive)
